In ChEMBL document CHEMBL3632579, “Hybrids from 4-anilinoquinazoline and hydroxamic acid as dual inhibitors of vascular endothelial growth factor receptor-2 and histone deacetylase” (Bioorg Med Chem Lett, 2015):

Tests used:
[1] = target: Vascular endothelial growth factor receptor 2 (Homo sapiens, UniProt P35968); assay: Inhibition VEGFR2 (unknown origin) for 30 mins by ELISA
MCF7 = assay: Antiproliferative activity against human MCF7 cells after 48 hrs by MTT assay; type: functional, cell-based; settings: MCF7, 48 h
Histone deacetylase = assay: Inhibition of human HDAC in HeLa cell nuclear extract by fluorometric assay using Fluor de Lys substrate; type: protein assay
[2] = target: T1, Protein deacetylase HDAC6 (Homo sapiens, UniProt Q9UBN7); assay: Inhibition of human recombinant HDAC6 by fluorometric assay using Fluor de Lys substrate
T1 sequence (Q9UBN7 whole entry): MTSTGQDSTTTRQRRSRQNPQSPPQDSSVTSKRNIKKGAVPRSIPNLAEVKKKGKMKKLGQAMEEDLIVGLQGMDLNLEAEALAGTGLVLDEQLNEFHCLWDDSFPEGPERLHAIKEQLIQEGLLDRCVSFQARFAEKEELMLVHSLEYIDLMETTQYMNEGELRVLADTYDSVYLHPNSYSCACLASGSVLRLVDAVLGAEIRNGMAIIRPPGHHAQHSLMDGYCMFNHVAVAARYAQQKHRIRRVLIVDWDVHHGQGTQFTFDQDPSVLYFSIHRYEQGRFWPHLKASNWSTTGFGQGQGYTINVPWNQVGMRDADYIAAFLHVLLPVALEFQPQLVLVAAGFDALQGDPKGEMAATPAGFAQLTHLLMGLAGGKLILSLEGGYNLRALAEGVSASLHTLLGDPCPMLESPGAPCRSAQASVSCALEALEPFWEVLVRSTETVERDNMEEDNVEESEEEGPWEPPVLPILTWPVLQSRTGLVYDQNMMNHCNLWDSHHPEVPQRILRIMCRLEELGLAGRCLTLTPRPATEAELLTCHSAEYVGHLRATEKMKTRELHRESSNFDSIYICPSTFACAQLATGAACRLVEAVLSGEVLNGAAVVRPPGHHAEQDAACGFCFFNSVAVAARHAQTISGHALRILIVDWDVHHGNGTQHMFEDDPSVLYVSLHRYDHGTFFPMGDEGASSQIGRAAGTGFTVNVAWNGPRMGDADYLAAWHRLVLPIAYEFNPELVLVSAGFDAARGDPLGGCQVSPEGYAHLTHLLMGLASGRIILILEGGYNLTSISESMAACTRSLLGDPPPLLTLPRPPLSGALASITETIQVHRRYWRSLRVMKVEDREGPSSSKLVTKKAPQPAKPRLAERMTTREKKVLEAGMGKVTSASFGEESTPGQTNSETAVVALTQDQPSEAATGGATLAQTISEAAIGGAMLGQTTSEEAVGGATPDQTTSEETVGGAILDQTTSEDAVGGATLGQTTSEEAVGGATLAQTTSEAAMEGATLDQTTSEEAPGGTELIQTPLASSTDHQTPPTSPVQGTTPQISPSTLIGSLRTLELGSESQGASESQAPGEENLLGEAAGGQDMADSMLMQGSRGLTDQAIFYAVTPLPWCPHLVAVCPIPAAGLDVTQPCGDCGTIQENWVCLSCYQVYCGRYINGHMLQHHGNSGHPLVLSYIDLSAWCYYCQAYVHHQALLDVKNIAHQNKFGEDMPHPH

A549 = assay: Antiproliferative activity against human A549 cells after 48 hrs by MTT assay; type: functional, cell-based; settings: A549, 48 h
Histone deacetylase 8 = target: T2, Histone deacetylase 8 (Homo sapiens, UniProt Q9BY41); assay: Inhibition of human recombinant HDAC8 by fluorometric assay using Fluor de Lys substrate
T2 sequence (Q9BY41 whole entry): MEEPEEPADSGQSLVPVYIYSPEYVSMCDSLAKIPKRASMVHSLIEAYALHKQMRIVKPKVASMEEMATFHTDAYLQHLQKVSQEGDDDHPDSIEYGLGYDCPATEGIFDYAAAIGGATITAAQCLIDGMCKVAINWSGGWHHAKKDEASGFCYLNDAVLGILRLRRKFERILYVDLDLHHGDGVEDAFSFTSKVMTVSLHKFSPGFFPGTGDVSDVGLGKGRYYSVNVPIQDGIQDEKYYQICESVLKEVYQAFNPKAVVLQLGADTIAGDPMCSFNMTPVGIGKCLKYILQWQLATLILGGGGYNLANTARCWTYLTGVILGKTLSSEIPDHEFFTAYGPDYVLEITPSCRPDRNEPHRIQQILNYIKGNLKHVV

Histone deacetylase 2 = Histone deacetylase 2 (Homo sapiens, UniProt Q92769); assay: Inhibition of human recombinant HDAC2 by fluorometric assay using Fluor de Lys substrate
Chain of Histone deacetylase 2 (Q92769 whole entry): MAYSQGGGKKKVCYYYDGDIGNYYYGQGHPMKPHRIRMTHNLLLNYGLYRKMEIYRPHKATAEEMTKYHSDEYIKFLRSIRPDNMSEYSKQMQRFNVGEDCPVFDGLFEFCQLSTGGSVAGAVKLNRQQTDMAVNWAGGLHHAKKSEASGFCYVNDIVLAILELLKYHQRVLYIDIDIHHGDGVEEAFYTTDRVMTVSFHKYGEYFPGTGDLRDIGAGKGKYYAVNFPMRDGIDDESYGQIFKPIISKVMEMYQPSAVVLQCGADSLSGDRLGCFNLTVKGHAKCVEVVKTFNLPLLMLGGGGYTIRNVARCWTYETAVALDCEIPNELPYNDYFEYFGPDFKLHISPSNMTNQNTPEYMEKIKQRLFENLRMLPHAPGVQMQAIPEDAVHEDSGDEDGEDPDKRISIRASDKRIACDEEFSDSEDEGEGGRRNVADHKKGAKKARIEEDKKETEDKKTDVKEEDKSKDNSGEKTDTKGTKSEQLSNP

HCT-116 = assay: Antiproliferative activity against human HCT116 cells after 48 hrs by MTT assay; type: functional, cell-based; settings: HCT-116, 48 h
Histone deacetylase 1 = Histone deacetylase 1 (Homo sapiens, UniProt Q13547); assay: Inhibition of human recombinant HDAC1 by fluorometric assay using Fluor de Lys substrate
Chain of Histone deacetylase 1 (Q13547 whole entry): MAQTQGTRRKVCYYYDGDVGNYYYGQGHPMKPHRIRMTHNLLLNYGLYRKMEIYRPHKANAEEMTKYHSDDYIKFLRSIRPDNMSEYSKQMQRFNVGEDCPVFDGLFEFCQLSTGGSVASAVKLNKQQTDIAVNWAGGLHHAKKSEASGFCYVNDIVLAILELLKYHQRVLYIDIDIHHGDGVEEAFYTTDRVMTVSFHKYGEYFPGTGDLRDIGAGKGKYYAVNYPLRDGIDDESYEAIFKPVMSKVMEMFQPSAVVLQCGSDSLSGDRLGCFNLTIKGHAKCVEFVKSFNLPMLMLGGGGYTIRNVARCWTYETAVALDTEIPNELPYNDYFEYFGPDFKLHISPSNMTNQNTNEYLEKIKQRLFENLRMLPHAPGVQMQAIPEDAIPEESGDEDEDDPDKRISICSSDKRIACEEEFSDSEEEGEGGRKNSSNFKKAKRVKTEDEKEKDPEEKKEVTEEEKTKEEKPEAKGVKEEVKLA

HepG2 = assay: Antiproliferative activity against human HepG2 cells after 48 hrs by MTT assay; type: functional, cell-based; settings: HepG2, 48 h

Chain of Vascular endothelial growth factor receptor 2 (P35968 whole entry): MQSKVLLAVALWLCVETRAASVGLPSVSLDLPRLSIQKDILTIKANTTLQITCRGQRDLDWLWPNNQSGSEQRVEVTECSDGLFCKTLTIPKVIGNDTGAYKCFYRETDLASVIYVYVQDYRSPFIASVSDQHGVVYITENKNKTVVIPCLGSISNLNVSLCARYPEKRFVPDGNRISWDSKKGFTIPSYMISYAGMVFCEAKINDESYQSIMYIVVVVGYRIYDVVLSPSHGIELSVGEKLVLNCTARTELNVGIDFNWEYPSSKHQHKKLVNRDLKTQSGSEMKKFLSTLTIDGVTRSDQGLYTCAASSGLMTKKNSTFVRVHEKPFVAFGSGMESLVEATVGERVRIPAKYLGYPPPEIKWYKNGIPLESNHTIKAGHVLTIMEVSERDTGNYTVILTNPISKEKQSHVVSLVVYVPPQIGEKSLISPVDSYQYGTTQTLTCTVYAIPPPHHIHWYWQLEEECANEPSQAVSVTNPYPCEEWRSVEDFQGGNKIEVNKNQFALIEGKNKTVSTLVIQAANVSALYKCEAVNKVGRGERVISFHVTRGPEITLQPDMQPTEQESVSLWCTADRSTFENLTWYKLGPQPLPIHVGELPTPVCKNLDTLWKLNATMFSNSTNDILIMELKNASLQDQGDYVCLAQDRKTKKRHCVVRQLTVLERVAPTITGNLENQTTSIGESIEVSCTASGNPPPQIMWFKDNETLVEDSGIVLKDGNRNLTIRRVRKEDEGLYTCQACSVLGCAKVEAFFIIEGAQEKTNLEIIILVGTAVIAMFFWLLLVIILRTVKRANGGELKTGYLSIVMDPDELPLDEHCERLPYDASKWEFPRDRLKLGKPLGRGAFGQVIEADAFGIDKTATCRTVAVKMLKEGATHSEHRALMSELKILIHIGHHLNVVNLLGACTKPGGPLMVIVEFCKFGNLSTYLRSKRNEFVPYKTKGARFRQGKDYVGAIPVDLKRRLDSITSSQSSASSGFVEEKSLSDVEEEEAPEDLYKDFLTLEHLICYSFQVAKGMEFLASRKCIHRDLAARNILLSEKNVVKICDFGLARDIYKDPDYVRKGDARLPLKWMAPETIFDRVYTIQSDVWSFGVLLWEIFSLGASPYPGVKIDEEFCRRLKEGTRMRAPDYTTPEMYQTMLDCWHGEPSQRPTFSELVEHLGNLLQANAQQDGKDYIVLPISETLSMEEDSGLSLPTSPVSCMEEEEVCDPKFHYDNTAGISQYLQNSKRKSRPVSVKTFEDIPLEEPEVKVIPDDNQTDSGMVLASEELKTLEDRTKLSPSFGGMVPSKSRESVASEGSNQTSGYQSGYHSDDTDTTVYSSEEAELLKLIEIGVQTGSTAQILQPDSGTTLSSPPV

Row | Structure (SMILES) | IC50 [1] | IC50 (MCF7) | IC50 (Histone deacetylase) | other results
1 | COc1cc2ncnc(Nc3cccc(Br)c3)c2cc1OCCCCC(=O)NO | 415 nM | 8.5 µM | 15 nM | –
2 | COc1cc2ncnc(Nc3cccc(Br)c3)c2cc1OCCCC(=O)NO | 434 nM | 68.4 µM | 97 nM | –
3 | COc1cc2ncnc(Nc3cccc(Cl)c3)c2cc1OCCC(=O)NO | 476 nM | > 100 µM | 645 nM | –
4 | COc1cc2/c(=N/c3ccc(Br)cc3F)nc[nH]c2cc1OCC1CCN(C)CC1 [VANDETANIB] | – | 18.5 µM | > 10000 nM | –
5 | COc1cc2ncnc(Nc3cccc(Cl)c3)c2cc1OCCCC(=O)NO | 352 nM | 65.2 µM | 121 nM | –
6 | COc1cc2ncnc(Nc3ccc(Cl)cc3Cl)c2cc1OCCCC(=O)NO | 138 nM | 56.8 µM | 86 nM | –
7 | COc1cc2ncnc(Nc3ccc(Cl)cc3Cl)c2cc1OCCC(=O)NO | 370 nM | 95 µM | 215 nM | –
8 | COc1cc2ncnc(Nc3cccc(Cl)c3)c2cc1OCCCCC(=O)NO | 613 nM | 8.6 µM | 17 nM | –
9 | COc1cc2ncnc(Nc3cccc(Br)c3)c2cc1OCCC(=O)NO | 625 nM | > 100 µM | 531 nM | –
10 | COc1cc2ncnc(Nc3cccc(Cl)c3)c2cc1OCCCCCC(=O)NO | 501 nM | 3.2 µM | 5.4 nM | –
11 | O=C(CCCCCCC(=O)Nc1ccccc1)NO [VORINOSTAT] | > 10000 nM | – | – | –
12 | COc1cc2ncnc(Nc3cccc(Br)c3)c2cc1OCCCCCC(=O)NO | 462 nM | 2.8 µM | 4.5 nM | –

The next lines start with results.

Row | IC50 [1] | IC50 (MCF7) | IC50 (Histone deacetylase) | Structure (SMILES) | other results
13 | 2450 nM | 4 µM | 8.4 nM | COc1cc2ncnc(Nc3cc(Cl)ccc3Cl)c2cc1OCCCCCC(=O)NO | –
14 | 2140 nM | 44.5 µM | 57 nM | COc1cc2ncnc(Nc3cc(Cl)ccc3Cl)c2cc1OCCCC(=O)NO | –
15 | 84 nM | 1.2 µM | 2.8 nM | COc1cc2ncnc(Nc3ccc(Cl)cc3Cl)c2cc1OCCCCCC(=O)NO | IC50 [2]: 25.5 nM; IC50 (A549): 5.4 µM; IC50 (Histone deacetylase 8): 5.2 nM; IC50 (Histone deacetylase 2): 6.8 nM; IC50 (HCT-116): 1800 nM; IC50 (Histone deacetylase 1): 3.5 nM; IC50 (HepG2): 2700 nM
16 | 115 nM | 6.4 µM | 14 nM | COc1cc2ncnc(Nc3ccc(Cl)cc3Cl)c2cc1OCCCCC(=O)NO | –
17 | 5200 nM | 13.7 µM | 21 nM | COc1cc2ncnc(Nc3cc(Cl)ccc3Cl)c2cc1OCCCCC(=O)NO | –
18 | 1260 nM | > 100 µM | 348 nM | COc1cc2ncnc(Nc3cc(Cl)ccc3Cl)c2cc1OCCC(=O)NO | –
